Assay results reported in paper PMC5040747, “Preparation and Evaluation of a Novel Class of Amphiphilic Amines as Antitumor Agents and Nanocarriers for Bioactive Molecules” (Pharmaceutical Research, 2016).
pIC50: −log10 of the molar value. Read-outs that look alike come from different tables or passages of the source.

Key:
MDA-MB-231 = assay: MTT cell proliferation assay, MDA-MB-231; format: cell-based; settings: Homo sapiens, MDA-MB-231, adult tumor cell line, read-out: Cell killing activity IC50
Method: (§1) Cells were plated in 96-well tissue culture plates at a density of 1 × 10^3 cells/well, allowed to attach 24 h, and then left untreated or treated with growth medium containing different concentrations of the tested RCn compounds previously dissolved in PBS. After different time periods the cell vitality was determined by MTT assay according to the manufacture’s instruction (Promega). Results are reported as the micromolar concentration of RCn reducing cell survival to 50% (IC50).

Micelle size by TEM = format: physicochemical; settings: RC16 micelles self-assembled in water
Method: TEM studies were carried out on SH-SY5Y cells and HFs incubated with 5 μM RC16 for 24 h. Cells were seeded on cover glasses for 24 h and then the medium was replaced with a fresh one containing 5 μM RC16 for 24 h. At the end of the treatment the samples were washed with PBS and fixed with 2.5% glutaraldehyde in 0.1 M phosphate buffer for 2 h at 4°C and subsequently post-fixed with 1% OsO4 in 0.1 M phosphate buffer for 1 h at room temperature. After several washes the samples were dehydrated in an acetone series (70, 90, 100%) and embedded in Epon resin (Fluka, Sigma-Aldrich). Thin sections were collected on nickel grids, stained with uranyl acetate and lead citrate, and observed under a TEM (Philips CM10; FEI). Images were recorded using a Megaview III digital camera (FEI). […] To this purpose an aqueous solution of RC16 (20 μM) was stained with 2% (w/v) phosphotungstic acid for 3 min on a copper grid and subsequently it was visualized under TEM.

A673 [1] = assay: Intracellular ROS assay; format: cell-based, human; settings: A673, 5 μM RC16, 15 h
Method: Intracellular ROS were measured by OxiSelect™ Intracellular ROS Assay Kit (Cell Biolabs) following the manufacturer’s instructions. Briefly, cells (1 × 10^5/mL) were washed twice in PBS and incubated with 5 μM 2’,7’-dichlorodihydrofluorescein diacetate (H2DCFDA) 1 h at 37°C. After PBS washes, the medium was changed with a new one containing 5 μM RC16 for 15 h and 24 h. At the end of the treatment samples were washed with PBS and a mixture of medium and cell lysis buffer (1:1) was added for 5 min at 37°C. The fluorescence was read by a fluorimetric plate reader (Spectra max M2, Molecular Device). Excitation wavelength was 480 nm and emission wavelength was 530 nm.

Ramos = assay: MTT cell proliferation assay, Ramos; format: cell-based; settings: Homo sapiens, Lymphoma, read-out: Cell killing activity IC50
Method: as §1

A673 [2] = assay: MTT cell proliferation assay, A673; format: cell-based; settings: Homo sapiens, A673, Ewing's Sarcoma, read-out: Cell killing activity IC50
Method: as §1

S462.TY cells = assay: Interaction of RC16 with sialic acid (MTT); format: cell-based, human; settings: 24 h
Method: Neuraminidase was used to cleave the sialic acid residues from the polysialilated glycoproteins and gangliosides of the tumor cell surface and the anticancer activity of RC16 was subsequently tested in comparison with the cells not exposed to Neuraminidase. Cells were seeded on 96 well plates at a density of 2 × 10^4 cells /plate and after 24 h were exposed to 50 IU/mL Neuraminidase Type VI from Clostridium Perfrigens (Sigma) for 3 h. Cells were washed 3 times with PBS and afterwards treated with RC16 . The effect on cell number was evaluated after 24 h by MTT assay in comparison with cells not treated with Neuraminidase. The RC16 –sialic acid interaction was also evaluated by adding sialic acid to the culture medium in stoichiometric amount with respect to RC16. In this experiment cells seeded on 96 well plates at a density of 2 × 10^4 cells /plate and after 24 h were treated with a mixture of RC16 : sialic acid (3 μM : 3 μM). After 24 h the effect on cell number was evaluated by MTT assay in comparison with cells treated with pure RC16 or pure sialic acid at the same concentration (3 μM) of the mixture.

[3] = test system: pediatric tumor cell lines; assay: MTT cell killing, pediatric tumor cell lines (summary); format: cell-based; settings: Table I
Method: as §1

[4] = test system: human tumor xenografts (CHLA-20, SK-N-AS, A673, A549, S462TY); assay: In vivo efficacy, human tumor xenograft models
Method: Female athymic nude mice were subcutaneously injected with 5 × 10^6 human cancer cells in 150 μL mix of PBS and matrigel (2:1). The mice were then randomized into groups of six animals for each tumor type. This number was chosen because we sought a large effect size and to minimize numbers of mice. When tumors reached a mean volume of 150 mm^3, the animals were treated with RC16 or vehicle alone (PBS), given slowly through the tail vein at the dose of 1 mg/kg, 3 times a week for 3 weeks or orally gavaged at the dose of 2 mg/kg/day for 3 weeks.
Endpoint criteria included tumor volume > 2000 mm3, body weight loss ≥ 20%, unusual mouse behavior, lack of movement and poor posture. Tumor size was measured using digital calipers on alternate days and tumor volume was calculated using the following formula: a x b^2 π/6 where a is the longest diameter and b is the shortest diameter. Mice were also weighed and observed 3 times per week for signs of endpoint condition.

[5] = test system: nude mice bearing CHLA-20 tumors; assay: Biodistribution study (IVIS imaging); format: in vivo, mouse; settings: RC16 labelled with Cell-Vue Maroon
Method: A pilot biodistribution study using one animal per timepoint was performed to minimize the number of experimental animals. Female athymic nude mice were subcutaneously implanted with 5.0 × 10^6 CHLA-20 cells. When tumors became palpable (approximately 5 mm in diameter), mice were treated with i.v. injections of RC16 labelled with Cell-Vue Maroon (dye:RC16, 1:100 mol:mole) at a dose of 1 mg/kg. […] The mice were then humanely euthanized by CO2 asphyxiation. Organs were removed, weighed and used for quantitative optical imaging by the IVIS system.

WIDr = assay: MTT cell proliferation assay, WIDr; format: cell-based; settings: Homo sapiens, adult tumor cell line, read-out: Cell killing activity IC50
Method: as §1

[6] = test system: human keratinocytes, human fibroblasts and HUVEC; assay: MTT cell killing, normal versus tumor cells (summary); format: cell-based
Method: as §1

SMILES: CCCCCCCCCCCCCCC1CN2CCCN3CCCCCC132 (stereo not drawn) [RC16, 2-tetradecyl-4,8-diazatricyclo[6.5.0.0^1,^4]tridecane]
- pIC50 (MDA-MB-231; 24 h): 5.53
- pIC50 (MDA-MB-231; 48 h): 5.78
- Micelle mean diameter (Micelle size by TEM): 20–30 nm
- Intracellular ROS levels relative to control (A673 [1]): more than twice the control values
- pIC50 (Ramos; 24 h): 7.00
- pIC50 (Ramos; 48 h): 7.40
- pIC50 (A673 [2]; 24 h): 6.10
- pIC50 (A673 [2]; 48 h): 6.19
- Anticancer activity after Neuraminidase pre-treatment of cells (S462.TY cells; RC16 3 μM, versus cells not exposed to Neuraminidase): decreased the anticancer activity of RC16
- Anticancer activity with sialic acid added to culture medium (S462.TY cells; RC16 : sialic acid 3 μM : 3 μM, versus pure RC16): decreased the RC16 anticancer activity
- Cell killing (qualitative) [3]: most active
- Antitumor activity (inhibition of tumor growth, RTV) ([4]; 1 mg/kg i.v. 3 times a week for 3 weeks or 2 mg/kg/day oral gavage for 3 weeks): strong antitumor activity
- Weight loss or signs of toxicity during treatment ([4]; i.v. 1 mg/kg 3 times a week or gavage 2 mg/kg/day, 3 weeks): No weight loss or signs of toxicity
- Organ fluorescence intensity (biodistribution) ([5]; 1 mg/kg i.v., 12, 24 and 48 h): stomach, intestine and liver showed the highest fluorescence intensity
- RC16 level in tumors over time ([5]; 1 mg/kg i.v., CHLA-20 tumors): remained constant over time
- pIC50 (WIDr; 24 h): 5.14
- pIC50 (WIDr; 48 h): 5.22
- IC50 for normal cells relative to tumor cells [6]: more than tenfold higher
